Columns and labels:
Assay type in all cases: biochemical
[1] = molecular target: SIK3 (Homo sapiens, UniProt Q9Y2K2); test: Enzymatic activity assay SIK3, RapidFire mass spectrometry (phosphorylation of CHK-peptide); settings: RapidFire MS, inhibition of SIK3; read-out: SIK3 RF IC50
Experimental: (§1) Assay description SIK1-3, RapidFire:
(§2) In the presence of SIK2 (resp. SIK1 or SIK3) and ATP the CHK-peptide ([…] with C-terminal arginine amide modification) were phosphorylated at one of the four feasible serine's. Only one phosphorylation is observed under the assay conditions. 60 nl of each compound dilution series (12 point; dilution factor 3, generally 30 μM to 170 pM) in DMSO were transferred by acoustic dispensing to the assay plate and 30 min pre-incubated (ambient temperature) after the addition of 5 μl SIK1 (5 nM) resp. 5 μl SIK2 (0.5 nM) or 7 μl SIK3 (1.5 nM) in assay-buffer (12.5 mM HEPES (pH 7.0), 10 mM magnesium acetate, 0.005% BSA). 10 μM CHK-peptide solution and 5 μl 100 μM ATP for SIK1 & SIK2 resp. 3 μl for SIK3 in assay-buffer were added and incubated ambient for 45 min. 40 μl 0.125% formic acid in water were added to quench the reaction. RapidFire (RF) Mass Spectrometry was utilized for data generation as described below. The multiple charged species (3-5 charges) for the phosphorylated and non-phosphorylated form measured by MRM (Multiple Reaction Monitoring; API5000 or 6500+) or EIC (Extracted Ion Current; QToF) were summed up and the ratio calculated (sum phosphorylated species/sum all species) for data evaluation. Normalization was performed by Genedata software based on the non-inhibition control DMSO and the commercially available SIK inhibitor @ 1 μM YKL-05-099 (CAS number 1936529-65-5). The results of the assay are expressed in half-maximal inhibitory concentrations (IC50s) and are summarized below in Table 1.
(§3) Samples were aspirated by vacuum for max. 600 ms and loaded to C4-cartridge (Agilent; #G9203A) for 3000 ms@1.5 ml/min with 0.1% formic acid in water. Afterwards samples were transferred to the APT5000 (APT6500+) or QToF mass spectrometer for 4000 ms@1.25 ml/min with 90% acetonitrile; 10% water; 0.007% TFA; 0.093 formic acid. The cartridge was reconditioned for additional 500 ms with 0.1% formic acid in water
(§4) All MS analyses using the following MS-setup in MRM mode: Electrospray positive; Ion Spray Voltage: 4000V; Temperature: 550° C.; Collision Gas: 5; Curtain Gas: 15; Gas1: 40; Gas 2: 42; EP: 10
(§5) MS-Setup Agilent QToF 6545
(§6) All MS analyses using the following MS-setup in Mode MS: Dual AJS Electrospray positive; VCap: 3000V; Drying & Sheath gas: 340° C.@81/min; Nebulizer: 60 psig; Nozzle Voltage: 2000V; Fragmentor: 130V; Skimmer: 35V; Oct1 RF Vpp: 700V; Ref masses on@5spectra/s

[2] = molecular target: SIK2 (Homo sapiens, UniProt Q9H0K1); test: Enzymatic activity assay SIK2, RapidFire mass spectrometry (phosphorylation of CHK-peptide); settings: RapidFire MS, inhibition of SIK2; read-out: SIK2 RF IC50
Chain of SIK2 (Q9H0K1 whole entry): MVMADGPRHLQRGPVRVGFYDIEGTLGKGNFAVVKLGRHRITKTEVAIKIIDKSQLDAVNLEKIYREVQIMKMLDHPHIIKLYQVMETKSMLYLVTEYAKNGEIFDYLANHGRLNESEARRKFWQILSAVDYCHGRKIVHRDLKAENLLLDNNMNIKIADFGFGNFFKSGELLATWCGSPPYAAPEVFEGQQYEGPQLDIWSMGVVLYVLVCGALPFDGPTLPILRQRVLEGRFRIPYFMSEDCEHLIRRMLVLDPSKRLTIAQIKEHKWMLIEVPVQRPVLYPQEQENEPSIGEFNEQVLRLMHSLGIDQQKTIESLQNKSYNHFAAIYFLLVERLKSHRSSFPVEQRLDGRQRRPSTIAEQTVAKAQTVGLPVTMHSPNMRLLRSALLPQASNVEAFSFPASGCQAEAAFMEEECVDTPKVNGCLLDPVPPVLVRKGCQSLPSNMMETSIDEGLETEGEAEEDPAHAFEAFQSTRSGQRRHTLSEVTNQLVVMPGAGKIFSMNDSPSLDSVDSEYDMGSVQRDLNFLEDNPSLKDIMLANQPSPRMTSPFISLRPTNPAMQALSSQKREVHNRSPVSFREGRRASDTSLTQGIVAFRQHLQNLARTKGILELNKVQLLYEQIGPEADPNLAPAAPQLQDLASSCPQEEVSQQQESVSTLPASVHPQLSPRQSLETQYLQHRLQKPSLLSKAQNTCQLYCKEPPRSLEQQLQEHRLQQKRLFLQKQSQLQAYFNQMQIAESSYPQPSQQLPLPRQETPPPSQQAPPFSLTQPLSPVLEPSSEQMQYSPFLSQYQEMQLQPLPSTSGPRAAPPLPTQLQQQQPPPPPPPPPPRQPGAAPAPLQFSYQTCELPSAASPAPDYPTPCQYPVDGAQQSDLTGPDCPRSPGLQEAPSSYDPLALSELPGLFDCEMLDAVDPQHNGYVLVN
Experimental: as §1
as §2, with “Only one phosphorylation is observed under the assay conditions. 60 nl of each compound dilution series (12 point; dilution factor 3, generally 30 μM to 170 pM) in DMSO were transferred by acoustic dispensing to the assay plate and 30 min pre-incubated (ambient temperature) after the addition of 5 μl SIK1 (5 nM) resp.” left out, “1936529-65-5).” for “1936529-65-5). The results of the assay are expressed in half-maximal inhibitory concentrations (IC50s) and are summarized below in Table 1.”
as §3, §4, §5, §6

[3] = molecular target: SIK1 (Homo sapiens, UniProt P57059); test: Enzymatic activity assay SIK1, RapidFire mass spectrometry (phosphorylation of CHK-peptide); settings: RapidFire MS, inhibition of SIK1; read-out: SIK1 RF IC50
Chain of SIK1 (P57059 whole entry): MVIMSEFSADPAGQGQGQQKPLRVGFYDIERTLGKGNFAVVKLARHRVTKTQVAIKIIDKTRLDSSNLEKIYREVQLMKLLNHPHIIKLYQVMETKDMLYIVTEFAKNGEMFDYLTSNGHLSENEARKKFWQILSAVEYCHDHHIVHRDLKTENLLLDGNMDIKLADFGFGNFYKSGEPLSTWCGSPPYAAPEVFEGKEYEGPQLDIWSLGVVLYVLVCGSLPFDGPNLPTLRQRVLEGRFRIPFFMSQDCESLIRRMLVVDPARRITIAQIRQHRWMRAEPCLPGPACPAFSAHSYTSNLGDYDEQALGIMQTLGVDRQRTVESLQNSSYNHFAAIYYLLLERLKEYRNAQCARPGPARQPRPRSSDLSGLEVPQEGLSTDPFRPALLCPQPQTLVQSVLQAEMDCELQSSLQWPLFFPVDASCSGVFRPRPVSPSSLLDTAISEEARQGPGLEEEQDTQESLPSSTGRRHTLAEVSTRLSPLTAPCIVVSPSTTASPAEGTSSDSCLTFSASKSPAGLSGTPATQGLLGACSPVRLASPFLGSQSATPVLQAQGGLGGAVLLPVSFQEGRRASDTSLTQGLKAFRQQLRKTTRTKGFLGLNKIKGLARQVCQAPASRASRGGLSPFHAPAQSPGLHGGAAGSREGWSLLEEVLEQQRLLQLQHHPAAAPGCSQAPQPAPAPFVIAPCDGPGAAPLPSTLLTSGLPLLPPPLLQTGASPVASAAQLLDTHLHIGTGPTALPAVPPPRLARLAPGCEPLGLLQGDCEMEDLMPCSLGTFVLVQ
Experimental: as §1, §2, §3, §4, §5, §6

Chain of SIK3 (Q9Y2K2 whole entry): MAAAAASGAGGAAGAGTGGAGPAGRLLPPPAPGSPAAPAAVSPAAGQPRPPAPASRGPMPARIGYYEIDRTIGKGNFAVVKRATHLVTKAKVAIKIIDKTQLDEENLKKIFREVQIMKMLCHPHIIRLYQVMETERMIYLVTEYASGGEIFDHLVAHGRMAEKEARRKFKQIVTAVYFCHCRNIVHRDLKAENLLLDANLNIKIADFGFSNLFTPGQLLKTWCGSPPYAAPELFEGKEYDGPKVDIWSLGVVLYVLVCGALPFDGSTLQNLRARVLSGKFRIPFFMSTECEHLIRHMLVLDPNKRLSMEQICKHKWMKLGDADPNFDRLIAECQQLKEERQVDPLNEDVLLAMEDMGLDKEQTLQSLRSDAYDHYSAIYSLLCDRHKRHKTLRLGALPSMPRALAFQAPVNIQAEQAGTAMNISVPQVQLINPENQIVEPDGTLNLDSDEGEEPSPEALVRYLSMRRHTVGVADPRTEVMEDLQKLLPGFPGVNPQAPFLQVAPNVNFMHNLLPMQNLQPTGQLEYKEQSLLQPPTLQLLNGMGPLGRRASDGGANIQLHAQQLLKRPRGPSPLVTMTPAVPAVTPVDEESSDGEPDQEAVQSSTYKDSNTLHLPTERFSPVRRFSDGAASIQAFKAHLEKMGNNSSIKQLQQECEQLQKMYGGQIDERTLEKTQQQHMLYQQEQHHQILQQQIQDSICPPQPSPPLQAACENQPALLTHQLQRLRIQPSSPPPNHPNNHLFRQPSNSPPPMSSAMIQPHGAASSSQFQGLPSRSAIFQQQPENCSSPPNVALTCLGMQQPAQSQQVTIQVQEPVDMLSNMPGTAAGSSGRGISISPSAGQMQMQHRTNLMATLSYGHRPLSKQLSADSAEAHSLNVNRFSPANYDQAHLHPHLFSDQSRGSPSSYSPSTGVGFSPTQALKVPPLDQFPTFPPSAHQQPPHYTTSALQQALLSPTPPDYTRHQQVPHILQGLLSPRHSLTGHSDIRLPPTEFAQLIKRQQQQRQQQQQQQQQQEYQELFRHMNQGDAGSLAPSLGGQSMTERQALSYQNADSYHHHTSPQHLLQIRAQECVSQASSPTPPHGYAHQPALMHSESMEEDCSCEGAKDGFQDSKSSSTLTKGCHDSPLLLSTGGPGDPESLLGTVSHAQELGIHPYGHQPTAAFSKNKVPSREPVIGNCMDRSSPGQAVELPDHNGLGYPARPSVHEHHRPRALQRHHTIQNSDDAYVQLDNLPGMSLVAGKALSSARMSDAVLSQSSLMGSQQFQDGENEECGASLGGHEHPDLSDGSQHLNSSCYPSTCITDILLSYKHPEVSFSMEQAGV

| SMILES | IC50 [1] [nM] | IC50 [2] [nM] | IC50 [3] [nM] |
| --- | --- | --- | --- |
| Cc1ccc(Oc2ccc3c(c2)ncn3-c2ccc(C(C)O)c(-n3nc(C#N)cc3C)n2)nn1 (stereo not drawn) [Example 75, 1-[3-(1-Hydroxyethyl)-6-[5-(6-methylpyridazin-3-yl)oxybenzimidazol-1-yl]-2-pyridyl]-5-methyl-pyrazole-3-carbonitrile] | 6.3 | 38.4 | 1440 |
| Cc1ccc(Nc2ccc3c(c2)ncn3-c2ccc(C(C)O)c(-c3c(C#N)cnn3C)n2)nn1 (stereo not drawn) [Example 76, 5-[3-(1-Hydroxyethyl)-6-[5-[(6-methylpyridazin-3-yl)amino]benzimidazol-1-yl]-2-pyridyl]-1-methyl-pyrazole-4-carbonitrile] | 66.2 | 327 | 7390 |
| Cc1cc(C#N)nn1-c1nc(-n2cnc3cc(N4CC[C@@H](O)C4)ccc32)ccc1C(C)O (stereo partly drawn) [Example 77, 1-[3-(1-Hydroxyethyl)-6-[5-[(3R)-3-hydroxypyrrolidin-1-yl]benzimidazol-1-yl]-2-pyridyl]-5-methyl-pyrazole-3-carbonitrile; formic acid] | 15.7 | 10.1 | 28 |
| Cc1cc(C#N)nn1-c1nc(-n2cnc3cc(N4CC[C@H](O)C4)ccc32)ccc1C(C)O (stereo partly drawn) [Example 78, 1-[3-(1-hydroxyethyl)-6-[5-[(3S)-3-hydroxypyrrolidin-1-yl]benzimidazol-1-yl]-2-pyridyl]-5-methyl-pyrazole-3-carbonitrile; formic acid] | 20.4 | 11.4 | 33 |
| Cc1cnc(Nc2ccc3c(c2)ncn3-c2ccc(C(C)O)c(-n3nc(C#N)cc3C)n2)cn1 (stereo not drawn) [Example 82, 1-[3-(1-Hydroxyethyl)-6-[5-[(5-methylpyrazin-2-yl)amino]benzimidazol-1-yl]-2-pyridyl]-5-methyl-pyrazole-3-carbonitrile] | 2.4 | 2.2 | 5 |
| Cc1ccc(Nc2ccc3c(c2)ncn3-c2ccc(C(C)O)c(-n3nc(C#N)cc3C)n2)nc1 (stereo not drawn) [Example 84, 1-[3-(1-hydroxyethyl)-6-[5-[(5-methyl-2-pyridyl)amino]benzimidazol-1-yl]-2-pyridyl]-5-methyl-pyrazole-3-carbonitrile] | 2.1 | 5.3 | 7 |
| Cc1ccc(Nc2ccc3c(c2)ncn3-c2ccc(C(C)O)c(N3CCCS3(=O)=O)n2)nn1 (stereo not drawn) [Example 85, 1-[2-(1,1-dioxo-1,2-thiazolidin-2-yl)-6-[5-[(6-methylpyridazin-3-yl)amino]benzimidazol-1-yl]-3-pyridyl]ethanol] | 1910 | 818 | 1070 |
| Cc1cc(C#N)nn1-c1nc(-n2cnc3cc(Nc4ccnnc4)ccc32)ccc1C(C)O (stereo not drawn) [Example 87, 1-[3-(1-Hydroxyethyl)-6-[5-(pyridazin-4-ylamino)benzimidazol-1-yl]-2-pyridyl]-5-methyl-pyrazole-3-carbonitrile] | 2.9 | 9.6 | 22 |
| Cc1ccc(Nc2cc3c(cc2F)ncn3-c2ccc(C(C)O)c(-n3nc(C#N)cc3C)n2)nn1 (stereo not drawn) [Example 94, 1-[6-[5-Fluoro-6-[(6-methylpyridazin-3-yl)amino]benzimidazol-1-yl]-3-(1-hydroxyethyl)-2-pyridyl]-5-methyl-pyrazole-3-carbonitrile] | 54.9 | 16.6 | 24 |
| Cc1ccc(Nc2ccc3ncn(-c4ccc(C(C)O)c(-n5nc(C(F)(F)F)c6c5CCNC6)n4)c3c2)nn1 (stereo not drawn) [Example 98, 1-[6-[6-[(6-Methylpyridazin-3-yl)amino]benzimidazol-1-yl]-2-[3-(trifluoromethyl)-4,5,6,7-tetrahydropyrazolo[4,3-c]pyridin-1-yl]-3-pyridyl]ethanol] | 13.4 | 4.2 | 5 |
| Cc1nnc(Nc2ccc3c(c2)ncn3-c2ccc(C(C)O)c(-n3nc(C#N)cc3C)n2)o1 (stereo not drawn) [Example 103, 1-[3-(1-Hydroxyethyl)-6-[5-[(5-methyl-1,3,4-oxadiazol-2-yl)amino]benzimidazol-1-yl]-2-pyridyl]-5-methyl-pyrazole-3-carbonitrile] | 17.5 | 28.8 | 35 |

Stronger by IC50 [1], values ahead:

| IC50 [1] [nM] | IC50 [2] [nM] | IC50 [3] [nM] | SMILES |
| --- | --- | --- | --- |
| 1.8 | 1.5 | 2 | Cc1cnc(Nc2ccc3c(c2)ncn3-c2ccc(C(C)O)c(-n3nc(C#N)cc3C)n2)nc1 (stereo not drawn) [Example 83, 1-[3-(1-Hydroxyethyl)-6-[5-[(5-methylpyrimidin-2-yl)amino]benzimidazol-1-yl]-2-pyridyl]-5-methyl-pyrazole-3-carbonitrile] |
| 1.5 | 6 | 62 | Cc1ncc(Nc2ccc3c(c2)ncn3-c2ccc(C(C)O)c(-n3nc(C#N)cc3C)n2)cn1 (stereo not drawn) [Example 86, 1-[3-(1-Hydroxyethyl)-6-[5-[(2-methylpyrimidin-5-yl)amino]benzimidazol-1-yl]-2-pyridyl]-5-methyl-pyrazole-3-carbonitrile] |
| 0.8 | 2.3 | 9 | Cc1ccc(Nc2ccc3c(c2)ncn3-c2ccc(C(C)O)c(-n3nc(C#N)cc3C)n2)cn1 (stereo not drawn) [Example 81, 1-[3-(1-Hydroxyethyl)-6-[5-[(6-methyl-3-pyridyl)amino]benzimidazol-1-yl]-2-pyridyl]-5-methyl-pyrazole-3-carbonitrile] |
| 0.8 | 2.2 | 62 | COc1ccc(Nc2ccc3c(c2)ncn3-c2ccc(C(C)O)c(-n3nc(C#N)cc3C)n2)nn1 (stereo not drawn) [Example 88, 1-[3-(1-Hydroxyethyl)-6-[5-[(6-methoxypyridazin-3-yl)amino]benzimidazol-1-yl]-2-pyridyl]-5-methyl-pyrazole-3-carbonitrile] |
| 0.7 | 1.2 | 95 | Cc1cc(C#N)nn1-c1nc(-n2cnc3cc(Nc4cccnn4)ccc32)ccc1C(C)O (stereo not drawn) [Example 89, 1-[3-(1-Hydroxyethyl)-6-[5-(pyridazin-3-ylamino)benzimidazol-1-yl]-2-pyridyl]-5-methyl-pyrazole-3-carbonitrile] |
| 0.6 | 0.5 | 97 | Cc1ccc(Nc2cc3ncn(-c4ccc(C(C)O)c(-n5nc(C#N)cc5C)n4)c3cc2F)nn1 (stereo not drawn) [Example 93, 1-[6-[6-Fluoro-5-[(6-methylpyridazin-3-yl)amino]benzimidazol-1-yl]-3-(1-hydroxyethyl)-2-pyridyl]-5-methyl-pyrazole-3-carbonitrile] |
| 0.5 | 0.9 | 53 | Cc1cc(C#N)nn1-c1nc(-n2cnc3cc(Nc4ccc(C(F)F)nn4)ccc32)ccc1C(C)O (stereo not drawn) [Example 90, 1-[6-[5-[[6-(Difluoromethyl)pyridazin-3-yl]amino]benzimidazol-1-yl]-3-(1-hydroxyethyl)-2-pyridyl]-5-methyl-pyrazole-3-carbonitrile] |
| 0.5 | 0.2 | 7 | Cc1ccc(Nc2ccc3c(c2)ncn3-c2ccc(C(C)O)c(-n3nc(C(F)(F)F)c4c3CCNC4)n2)nn1 (stereo not drawn) [Example 97, 1-[6-[5-[(6-Methylpyridazin-3-yl)amino]benzimidazol-1-yl]-2-[3-(trifluoromethyl)-4,5,6,7-tetrahydropyrazolo[4,3-c]pyridin-1-yl]-3-pyridyl]ethanol] |

From patent publication US20240383875A1, “Benzimidazole Pyridine Derivatives” (Hoffmann-La Roche Inc., priority 2022, published 2024)
